According to paper PMC9743094, “Synthesis and Evaluation of Polymyxins Bearing Reductively Labile Disulfide-Linked Lipids” (Journal of Medicinal Chemistry, 2022):
In brackets after ≈: the same amount, converted by molar mass. Where two headings read alike, the source gives them in different places. Starred links: 1 amine or outer side, 2 acyl side, 3 side chain; linkers in the order of their positions; H or OH if unused. Positions of bridges follow the written chain, without caps; N, C: chain ends. Non-standard residues stand in square brackets, D forms with d. Residues, ends and D or L forms follow the SMILES beside them. *: point of attachment. X2 = CC(C)CCCCC[C@@H](N[*:1])C(=O)[*:2]; S(3-Cl-benzyl) = Clc1cccc(CS*)c1; Dab = NCC[C@H](N)C(=O)O; X1 = CC(C)CCCCS*

Experiments:
[1] = system: differentiated conditionally immortalized PTECs (ciPTECs, OAT-1); experiment: ciPTEC toxicity assay (PrestoBlue); assay type: cell-based, human
Procedure: ciPTECs (OAT-1) cells,[52],[53] grown to 90–100% confluence, were washed by Hanks’ balanced salt solution (HBSS; Gibco, Life Technologies, Paisley, U.K.) and detached by accutase (4 mL) for 5 min at 37 °C. The cells were then suspended in fresh medium (DMEM/F-12, supplemented with 10% fetal calf serum, insulin (5 μg/mL), transferrin (5 μg/mL), selenium (5 μg/mL) hydrocortisone (35 ng/mL), Epidermal Growth Factor (10 ng/mL) and tri-iodothyronine (40 pg/mL)). Cell density was adjusted to 2.0 × 10^5 cells/mL, of which 100 μL was added to each well of a 96-well plate. The cells were incubated for 24 h at 33 °C, followed by 6 days at 37 °C, in a humidified atmosphere containing 5% (v/v) CO2. The medium was refreshed every second or third day.
Compounds were dissolved and serially diluted in serum-free medium. Differentiated cells were washed once with HBSS and serially diluted compounds (80 μL/well) were transferred to the ciPTEC-containing plate. Compounds were incubated for 24 h at 37 °C; the cells were washed by HBSS, followed by incubation with 10% PrestoBlue cell viability reagent (Thermo Scientific, Vienna, Austria) in HBSS at 37 °C in the dark. Fluorescence was recorded (excitation: 530 nm, emission: 590 nm). Raw data are corrected for PrestoBlue background fluorescence and reported relative to the no-treatment control (cells with medium only). Viability data were fitted with GraphPad Prism software (version 5.03; GraphPad Software, La Jolla, CA), by nonlinear regression with 0 as bottom constraint. Presented data are based on triplicates.
Toxicity assessment on PTECs
Table S1. TC50 values for polymyxin analogues. Toxicity assessment on proximal tubular epithelial cells
performed using PrestoBlue™ assay. TC50 values are derived after non-linear regression analysis on cell viability
correspond to data obtained from 2 different batches of cells/analyses on different days. As the value for
polymyxin B differs 2-fold, values in the manuscript are presented relative to the polymyxin B value.
Compound TC50 (µ M) Compound TC50 (µ M)
Polymyxin B 80 Polymyxin B 41
Figure S3. Representative traces of ciPTECs’ viability after incubation with analogues for 24 hours. Shown data are based on […]

[2] = system: K. pneumoniae (ATCC 13883); assay type: cell-based; conditions: ATCC 13883
Procedure: (§1) Minimum inhibitory concentrations (MICs) on relevant Gram-negative bacteria were determined by broth microdilution, in accordance with CLSI guidelines. Indicated bacteria were taken from glycerol stocks and incubated overnight on blood agar at 37 °C. Well-isolated colonies were taken, suspended in TSB (5 mL), and grown to an OD600 of 0.5. Compounds to be tested were dissolved in DMSO (6.4 mg/mL), diluted in cation-adjusted Mueller–Hinton Broth (CAMHB) (12.5 and 20 μg/mL Mg^2+ and Ca^2+, respectively), and diluted serially on polypropylene microtiter plates. To the diluted compounds (50 μL per well) was added 50 μL of relevant bacterial suspension, to yield a final concentration of 10^6 CFU/mL. Plates were covered by adhesive gas-permeable membranes and incubated at 37 °C. MIC was read out as the lowest concentration that inhibited visual bacterial growth. Shown values are consistent results from at least duplicate experiments.

[3] = system: A. baumannii (ATCC 19606); assay type: cell-based; conditions: ATCC 19606
Procedure: as §1

[4] = system: P. aeruginosa (ATCC 27853); assay type: cell-based; conditions: ATCC 27853
Procedure: as §1

E. coli (ATCC 25922) = assay type: cell-based; conditions: ATCC 25922
Procedure: as §1

P. aeruginosa ATCC 10145 = assay type: cell-based; conditions: ATCC 10145
Procedure: as §1
(§2) Bacterial strains used for MIC assays and extended MIC assessment
(§3) Strains: The following strains were obtained from BEI Resources, NIAID, NIH: E. Coli M0072, strain
(§4) Table S2. […] Values are given in μg/mL.
(§5) Species Strain ID Resistance Polymyxin B 18b 23a 24a

P. aeruginosa M120 = assay type: cell-based; conditions: M120
Procedure: as §1, §2, §3, §4, §5

K. pneumoniae RC0045 = assay type: cell-based; conditions: RC0045
Procedure: as §1, §2, §3, §4, §5

A. baumannii BAA-747 = assay type: cell-based; conditions: BAA-747
Procedure: as §1, §2, §3, §4, §5

E. coli JS136 = assay type: cell-based; conditions: JS136
Procedure: as §1, §2, §3, §4, §5

E. coli 1793 = assay type: cell-based; conditions: 1793
Procedure: as §1, §2, §3, §4, §5

P. aeruginosa 2251 = assay type: cell-based; conditions: 2251
Procedure: as §1, §2, §3, §4, §5

P. aeruginosa 2018-007 = assay type: cell-based; conditions: 2018-007
Procedure: as §1, §2, §3, §4, §5

A. baumannii NRZ-00687 = assay type: cell-based; conditions: NRZ-00687
Procedure: as §1, §2, §3, §4, §5

K. pneumoniae ATCC 29665 = assay type: cell-based; conditions: ATCC 29665
Procedure: as §1, §2, §3, §4, §5

E. coli M0072 = assay type: cell-based; conditions: M0072
Procedure: as §1, §2, §3, §4, §5

A. baumannii RUH-134 = assay type: cell-based; conditions: RUH-134
Procedure: as §1, §2, §3, §4, §5

K. pneumoniae KP1.53 = assay type: cell-based; conditions: KP1.53
Procedure: as §1, §2, §3, §4, §5

P. aeruginosa (PAO1) = assay type: cell-based; conditions: PAO1, 2 h
Procedure: as §1
(§6) Table S3. MIC values [µg/mL] and relative toxicity values for disulfide containing polymyxin derivative 18b and
(§7) non-disulfide containing analogue 45. […]

A. baumanii (ATCC 17961) = assay type: cell-based; conditions: ATCC 17961, 2 h
Procedure: as §1, §6, §7

MIC K. pneumoniae (ATCC 13883) [2] | MIC A. baumannii (ATCC 19606) [3] | MIC P. aeruginosa (ATCC 27853) [4] | MIC A. baumannii NRZ-00687 (A. baumannii NRZ-00687) | SMILES | TC50, Day 2 [1] | ciPTEC Toxicity Index (relative to polymyxin B) [1] | MIC E. coli (ATCC 25922) (E. coli (ATCC 25922)) | further results
1 µg/mL (≈ 0.798 µM) | 1 µg/mL (≈ 0.798 µM) | 2 µg/mL (≈ 1.6 µM) | 1 µg/mL (≈ 0.798 µM) | CC(C)CCCCSSC[C@H](NC(=O)CN)C(=O)N[C@H](C(=O)N[C@@H](CCN)C(=O)N[C@H]1CCNC(=O)[C@H]([C@@H](C)O)NC(=O)[C@H](CCN)NC(=O)[C@H](CCN)NC(=O)[C@H](CC(C)C)NC(=O)[C@@H](Cc2ccccc2)NC(=O)[C@H](CCN)NC1=O)[C@@H](C)O [Compound 24a] (H-GC(X1)T[Dab][Dab][Dab][dF]L[Dab][Dab]T; lactam 5-C) | 327 µM | 8.0 | 2 µg/mL (≈ 1.6 µM) | MIC P. aeruginosa ATCC 10145 (P. aeruginosa ATCC 10145): 4 µg/mL (≈ 3.19 µM); MIC P. aeruginosa M120 (P. aeruginosa M120): 2 µg/mL (≈ 1.6 µM); MIC K. pneumoniae RC0045 (K. pneumoniae RC0045): 1 µg/mL (≈ 0.798 µM); MIC A. baumannii BAA-747 (A. baumannii BAA-747): 1 µg/mL (≈ 0.798 µM); MIC E. coli JS136 (E. coli JS136): 1 µg/mL (≈ 0.798 µM); MIC E. coli 1793 (E. coli 1793): 1 µg/mL (≈ 0.798 µM); MIC P. aeruginosa 2251 (P. aeruginosa 2251): 2 µg/mL (≈ 1.6 µM); MIC P. aeruginosa 2018-007 (P. aeruginosa 2018-007): 16 µg/mL (≈ 12.8 µM); MIC K. pneumoniae ATCC 29665 (K. pneumoniae ATCC 29665): 1 µg/mL (≈ 0.798 µM); MIC E. coli M0072 (E. coli M0072): 1 µg/mL (≈ 0.798 µM); MIC A. baumannii RUH-134 (A. baumannii RUH-134): 1 µg/mL (≈ 0.798 µM); MIC K. pneumoniae KP1.53 (K. pneumoniae KP1.53): 2 µg/mL (≈ 1.6 µM)
≤ 0.25 µg/mL | 0.25 µg/mL (≈ 0.221 µM) | 1 µg/mL (≈ 0.883 µM) | 0.5 µg/mL (≈ 0.442 µM) | CC(C)CCCCC[C@@H](N)C(=O)N[C@H](C(=O)N[C@@H](CCN)C(=O)N[C@H]1CCNC(=O)[C@H]([C@@H](C)O)NC(=O)[C@H](CCN)NC(=O)[C@H](CCN)NC(=O)[C@H](CC(C)C)NC(=O)[C@@H](Cc2ccccc2)NC(=O)[C@H](CCN)NC1=O)[C@@H](C)O [Compound 45] (H-[X2]T[Dab][Dab][Dab][dF]L[Dab][Dab]T; lactam 4-C) |  | 2.0 |  | TC50, Day 2 ([1]; 24 h): 82 µM; MIC P. aeruginosa (PAO1) (P. aeruginosa (PAO1)): 1 µg/mL (≈ 0.883 µM); MIC A. baumanii (ATCC 17961) (A. baumanii (ATCC 17961)): 0.25 µg/mL (≈ 0.221 µM)

SMILES | MIC K. pneumoniae (ATCC 13883) [2] | MIC A. baumannii (ATCC 19606) [3] | MIC P. aeruginosa (ATCC 27853) [4] | MIC A. baumannii NRZ-00687 (A. baumannii NRZ-00687) | TC50, Day 2 [1] | ciPTEC Toxicity Index (relative to polymyxin B) [1] | MIC E. coli (ATCC 25922) (E. coli (ATCC 25922)) | further results
CC(C)C[C@@H]1NC(=O)[C@@H](Cc2ccccc2)NC(=O)[C@H](CCN)NC(=O)[C@@H](NC(=O)[C@H](CCN)NC(=O)[C@@H](NC(=O)[C@H](N)CSSCc2cccc(Cl)c2)[C@@H](C)O)CCNC(=O)[C@H]([C@@H](C)O)NC(=O)[C@H](CCN)NC(=O)[C@H](CCN)NC1=O [Compound 38] (H-[dC](S(3-Cl-benzyl))T[Dab][Dab][Dab][dF]L[Dab][Dab]T; lactam 4-C) | 0.5 µg/mL (≈ 0.409 µM) | 1 µg/mL (≈ 0.818 µM) | 4 µg/mL (≈ 3.27 µM) |  | 74 µM |  | 1 µg/mL (≈ 0.818 µM) | 
